# Patent US9809602B2, “Compounds for treating viral infections” (INSTITUT PASTEUR KOREA, priority 2014, dated 2017)
# Test system: genotype 1/2 chimeric cell culture derived HCV (HCVcc)
# Test: Genotype 1/2 chimeric HCVcc assay (nano-luciferase, HCV replication)
# Type: cell-based
# Details: Hepatitis C virus
# Procedure, shortened: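 Huh-7.5 cells (2400/well) pretreated 2 h with serially diluted compound, then infected with nano-luciferase genotype 1a/2a (JFH-1) chimeric HCVcc. At 72 h post infection, nano-luciferase reported replication and cellular ATP reported cytotoxicity; EC50 and CC50 by non-linear regression.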
row,Compound,EC50
1,O=C(NCCCN1CCC(N2CCCCC2)CC1)c1ccc(-c2ccc(C(F)(F)F)cc2)c(C(F)(F)F)c1 [Compound 1105],100 to 1000 nM
2,CN1CCN(C(=O)c2ccc(-c3ccc(C(=O)NCCCN4CCC(N5CCCCC5)CC4)cc3)cc2)CC1 [Compound 1151],> 10000 nM
3,NC(=O)c1ccc(-c2ccc(C(=O)NCCCN3CCC(N4CCCCC4)CC3)cc2)cc1 [Compound 1129],> 10000 nM
4,O=C(NCCCN1CCC(N2CCCCC2)CC1)c1ccc(-c2cccs2)cc1 [Compound 1023],100 to 1000 nM
5,COc1cc(-c2ccc(C(F)(F)F)cc2)ccc1C(=O)NCCCN1CCC(N2CCCCC2)CC1 [Compound 1155],100 to 1000 nM
6,O=C(NCCCN1CCC(N2CCCCC2)CC1)c1ccc(Nc2ccccc2)cc1 [Compound 1070],1000 to 10000 nM
7,O=C(NCCCN1CCC(N2CCCCC2)CC1)c1cccc(-c2ccccc2)c1 [Compound 1025],1000 to 10000 nM
8,O=S(=O)(NCCCCN1CCC(N2CCCCC2)CC1)c1ccc(-c2ccccc2)cc1 [Compound 1091],100 to 1000 nM
9,O=C(NCCCN1CCC(N2CCCCC2)CC1)c1ccc(Oc2ccccc2)cc1 [Compound 1013],100 to 1000 nM
10,COc1cc(C(=O)NCCCN2CCC(N3CCCCC3)CC2)ccc1-c1ccc(C(F)(F)F)cc1 [Compound 1115],100 to 1000 nM
11,O=C(NCCCN1CCC(N2CCOCC2)CC1)c1ccc(Oc2ccccc2)cc1 [Compound 1050],1000 to 10000 nM
12,NS(=O)(=O)c1ccc(-c2ccc(C(=O)NCCCN3CCC(N4CCCCC4)CC3)cc2)cc1 [Compound 1128],> 10000 nM
13,O=C(NCCCN1CCC(N2CCCC2)CC1)c1ccc(Oc2ccccc2)cc1 [Compound 1067],100 to 1000 nM
14,O=C(NCCCN1CCC(N2CCCCC2)CC1)c1ccc(-c2ccc(F)cc2)cc1 [Compound 1020],100 to 1000 nM
15,O=C(NCCCN1CCC(N2CCCCC2)CC1)c1ccc(OCc2ccc(F)cc2)cc1 [Compound 1043],1000 to 10000 nM
16,O=C(NCCCN1CCC(Cc2ccccc2)CC1)c1ccc(Oc2ccccc2)cc1 [Compound 1042],1000 to 10000 nM
17,O=C(NCCCN1CCC(N2CCCCC2)CC1)c1ccc(Oc2cccc(F)c2)cc1 [Compound 1062],> 10000 nM
18,O=C(NCCCN1CCC(Oc2ccccc2)CC1)c1ccc(Oc2ccccc2)cc1 [Compound 1056],1000 to 10000 nM
19,O=C(NCCCN1CCC(N2CCCCC2)CC1)c1ccc(-c2ccc(C(F)(F)F)cc2)s1 [Compound 1081],100 to 1000 nM
20,O=C(CCCN1CCC(N2CCCCC2)CC1)Nc1ccc(-c2ccc(C(F)(F)F)cc2)cc1F [Compound 1114],100 to 1000 nM

# Same assay, conditions: Hepatitis C virus, Huh7.5, 72 h
row,Compound,EC50
1,CCOC(=O)c1c(NC(=O)OCc2c(-n3cccc3)sc3c2CCN(CC)C3)sc2c1CCCC2 [Compound 94],< 100 nM
2,CCOC(=O)c1c(NC(=O)NCc2c(-c3ccco3)sc3c2CCNC3)sc2c1CCCC2 [Compound 338],< 100 nM
3,CCc1sc2c(c1CNC(=O)Nc1sc3c(c1C(=O)OC(C)(C)C)CCOC3)CCNC2 [Compound 333],< 100 nM
4,COC(=O)c1c(NC(=O)NCc2c(C(F)(F)F)sc3c2CC[N+](C)(C)C3)sc2c1CCCC2 [Compound 223],1000 to 10000 nM
5,O=C(NCc1c(Br)sc2c1CCNC2)Nc1sc2c(c1C(=O)OC1CCCCC1)CCCC2 [Compound 271],< 100 nM
6,Cc1sc(NC(=O)NCc2c(-c3cccc(F)c3)sc3c2CCNC3)c(C(=O)OC(C)(C)C)c1C [Compound 364],< 100 nM
7,CCOC(=O)c1c(NC(=O)NCc2c(Br)sc3c2CCNC3)sc2c1CC(C)CC2C (stereo not drawn) [Compound 207],< 100 nM
8,CC(C)(C)OC(=O)c1c(NC(=O)NCc2csc3c2CCNC3)sc2c1CCCC2 [Compound 124],< 100 nM
9,CCOC(=O)c1c(NC(=O)NCc2c(C(F)(F)F)sc3c2CCNC3)sc2c1CC(C)CC2C (stereo not drawn) [Compound 208],< 100 nM
10,CCc1c(C)sc(NC(=O)NCc2c(-n3cccc3)sc3c2CCNC3)c1C(=O)OC(C)(C)C [Compound 269],< 100 nM
11,CCOC(=O)c1c(NC(=O)NCc2c(C(F)(F)F)sc3c2CCNC3)sc2c1CCC(F)(F)C2 [Compound 219],< 100 nM
12,CCOC(=O)c1cc(C)ccc1NC(=O)NCc1c(-n2cccc2)sc2c1CCNC2 [Compound 104],1000 to 10000 nM
13,Cc1c(CNC(=O)Nc2sc3c(c2C(=O)OC(C)(C)C)CCCC3)csc1CN(C)C [Compound 189],< 100 nM
14,CCOC(=O)c1c(NC(=O)NCc2c(-n3cccc3)sc3c2CCN(CC)C3)sc2c1CCCCC2 [Compound 56],< 100 nM
15,CCN1CCc2c(sc(-n3cccc3)c2NC(=O)Nc2sc3c(c2C(=O)OC(C)(C)C)CCCC3)C1 [Compound 105],1000 to 10000 nM
16,CC(C)(C)OC(=O)c1c(NC(=O)NCc2c(-c3cccnc3)sc3c2CCNC3)sc2c1CCCC2 [Compound 123],< 100 nM
17,CC(C)(C)OC(=O)c1c(NC(=O)NCc2c(-c3ccc4cc[nH]c4c3)sc3c2CCNC3)sc2c1CCCC2 [Compound 201],1000 to 10000 nM
18,O=C(NCc1c(-n2cccc2)sc2c1CCNC2)Nc1sc2c(c1C(=O)N1CCOCC1)CCCC2 [Compound 76],100 to 1000 nM
19,CCOC(=O)c1c(NC(=O)c2cc3c(s2)CCCC3)sc2c1CCN(CC)C2 [Compound 17],1000 to 10000 nM
20,CC(C)OC(=O)c1c(NC(=O)NCc2c(Br)sc3c2CCN(C)C3)sc2c1CCCC2 [Compound 172],< 100 nM
21,CCN1CCc2c(sc(Br)c2CNC(=O)Nc2sc(C)c(C)c2C(=O)OC(C)C)C1 [Compound 264],< 100 nM
22,CCOC(=O)c1c(NC(=O)NCc2c(C(F)(F)F)sc3c2CCNC3)sc2c1CCCC2 [Compound 96],< 100 nM
23,Cc1nnc(-c2c(NC(=O)NCc3c(C(F)(F)F)sc4c3CCNC4)sc(C)c2C)o1 [Compound 149],< 100 nM
24,Cc1sc(NC(=O)NCc2c(C(F)(F)F)sc3c2CCNC3)c(C(=O)OC(C)C)c1C [Compound 217],< 100 nM
25,CCOC(=O)c1c(NC(=O)NCc2c(-n3cccc3)sc3c2CCN(CC)C3)sc2c1C(C)CCC2 (stereo not drawn) [Compound 151],< 100 nM
26,CCOC(=O)c1c(NC(=O)NCc2c(C(F)(F)F)sc(CN(C)C)c2C)sc2c1CCCC2 [Compound 214],< 100 nM
27,COCCN1CCc2c(sc(-n3cccc3)c2CNC(=O)Nc2sc3c(c2C(=O)OC(C)(C)C)CCCC3)C1 [Compound 259],< 100 nM
28,CCc1cc(C(=O)OC(C)(C)C)c(NC(=O)NCc2c(C(F)(F)F)sc3c2CCNC3)s1 [Compound 354],< 100 nM

row,Compound,EC50
1,CCOC(=O)c1c(NC(=O)NCc2c(-n3cccc3)sc3c2CCN(CC)C3)sc2c1CCNC2 [Compound 46],100 to 1000 nM
2,CCc1sc(NC(=O)NCc2c(-n3cccc3)sc3c2CCNC3)c(C(=O)OC(C)(C)C)c1C [Compound 318],100 to 1000 nM
3,CCOC(=O)c1c(NC(=O)NCc2c(-n3cccc3)sc3c2CCNC3)sc2ccccc12 [Compound 63],100 to 1000 nM
4,CC(C)(C)OC(=O)c1c(NC(=O)NCc2c(-n3cccc3)sc3c2CCN(CCF)C3)sc2c1CCCC2 [Compound 242],< 100 nM
5,C=CCN1CCc2c(sc(-n3cccc3)c2CNC(=O)Nc2sc3c(c2C(=O)OC(C)(C)C)CCCC3)C1 [Compound 324],< 100 nM
6,CCOC(=O)c1c(NC(=O)NCc2c(-n3cccc3)sc3c2CCN(C)C3)sc(C)c1C [Compound 71],< 100 nM
7,CC(C)OC(=O)c1c(NC(=O)NCc2c(-n3cccc3)sc3c2CCN(C)C3)sc2c1CCCC2 [Compound 156],< 100 nM
8,Cc1sc(NC(=O)NCc2c(-c3cccc(F)c3)sc3c2CCNC3)c(C(=O)OC(C)C)c1C [Compound 251],< 100 nM
9,CC(C)(C)OC(=O)c1c(NC(=O)NCc2c(-c3ccc(C(F)(F)F)cc3)sc3c2CCNC3)sc2c1CCCC2 [Compound 146],< 100 nM
10,CC1Cc2c(sc(NC(=O)NCc3c(-n4cccc4)sc4c3CCN(C)C4)c2C(=O)OC(C)(C)C)C(C)C1 (stereo not drawn) [Compound 293],< 100 nM
11,CC(C)(C)OC(=O)c1c(NC(=O)NCc2c(-c3ccc(Cl)nc3)sc3c2CCNC3)sc2c1CCCC2 [Compound 307],< 100 nM
12,CCOC(=O)c1c(NC(=O)NCc2c(-n3cccc3)sc3c2CCNC3)sc2c1CCNC2 [Compound 64],1000 to 10000 nM
13,CCOC(=O)c1c(NC(=O)NCc2c(C(F)(F)F)sc3c2CCNC3)sc2ccccc12 [Compound 348],< 100 nM
14,O=C(NCc1c(C(F)(F)F)sc2c1CCNC2)Nc1sc2c(c1C(=O)OC1CCCCC1)CCCC2 [Compound 272],< 100 nM
15,CCOC(=O)c1c(NC(=O)NCc2c(C(F)(F)F)sc3c2CCN(C(=O)[C@@H](N)C(C)C)C3)sc2c1CCCC2 [Compound 345],< 100 nM
16,CC(C)(C)OC(=O)c1c(NC(=O)NCc2c(-n3cccc3)sc3c2CCN(C2CC2)C3)sc2c1CCCC2 [Compound 334],< 100 nM
17,CCOC(=O)c1c(NC(=O)NCc2c(-n3cccc3)sc3c2CCN(CC(C)C)C3)sc2c1CCCC2 [Compound 27],< 100 nM
18,CCc1c(C)sc(NC(=O)NCc2c(C(F)(F)F)sc3c2CCNC3)c1C(=O)OC(C)(C)C [Compound 268],< 100 nM
19,CCN1CCc2c(sc(-n3cccc3)c2CNC(=O)Nc2sc3c(c2C(=O)OC(C)(C)C)CCC3)C1 [Compound 114],< 100 nM
20,CCOC(=O)c1c(NC(=O)NCc2c(Br)sc3c2CCN(C)C3)sc2c1CCCC2 [Compound 199],< 100 nM
21,CC(C)OC(=O)c1c(NC(=O)NCc2c(C(F)(F)F)sc3c2CCN(C)C3)sc2c1CCCC2 [Compound 169],< 100 nM
22,CCN1CCc2c(sc(C(F)(F)F)c2CNC(=O)Nc2sc3c(c2C(=O)OC(C)C)CCCC3)C1 [Compound 171],< 100 nM
23,CCN1CCc2c(sc(Br)c2CNC(=O)Nc2sc3c(c2C(=O)OC)CCCC3)C1 [Compound 177],< 100 nM
24,CC(C)(C)OC(=O)c1c(NC(=O)NCc2c(-c3ccccc3O)sc3c2CCNC3)sc2c1CCCC2 [Compound 249],100 to 1000 nM
25,CC(C)OC(=O)c1c(NC(=O)NCc2c(C(F)(F)F)sc3c2CC[N+](C)(C)C3)sc2c1CCCC2 [Compound 170],< 100 nM
26,CCN1CCc2c(sc(-n3cccc3)c2CNC(=O)Nc2sc3c(c2C(=O)NCCOCCOCCN)CCCC3)C1 [Compound 89],1000 to 10000 nM
27,CN1CCc2c(sc(C(F)(F)F)c2CNC(=O)Nc2sc3c(c2C(=O)OC(C)(C)C)CCCC3)C1 [Compound 184],< 100 nM
